Assay results reported in patent publication US20070014739A1, “Compositions and methods for controlling biofilms and bacterial infections” (priority 2005, published 2007).

Key:
[1] = system: P. aeruginosa strain PAO1; assay: Rotating disk reactor (RDR) biofilm test with and without tobramycin, culturable bacteria; format: cell-based, Pseudomonas aeruginosa; conditions: average of three days; for CFU, Test Compound: no tobramycin; for CFU, Tobramycin and Test Compound: then tobramycin 100 μg/ml 2 h
Experimental: Biofilm formation of P. aeruginosa was evaluated using a standardized biofilm method with a rotating disk reactor (RDR). This method provides a model resembling the formation of biofilms in cystic fibrosis patients. The rotating disk reactor consists of a one-liter glass beaker fitted with a drain spout. The bottom of the vessel contains a magnetically driven rotor with six 1.27 cm diameter coupons constructed from polystyrene. The rotor consists of a star-head magnetic stir bar upon which a disk was affixed to hold the coupons. The vessel with the stir bar was placed on a stir plate and rotated to provide fluid shear. A nutrient solution (AB Trace Medium with 0.3 mM glucose, see Table 3 below for composition) was added through a stopper in the top of the reactor at a flow rate of 5 ml/min. The reactor volume was approximately 180 ml and varied slightly between reactors depending on the placement of the drain spout and the rotational speed of the rotor. At a volume of 180 ml, the residence time of the reactors was 36 minutes. The reactors were operated at room temperature (c.a. 26° C.).
For each test, two RDRs were operated in parallel with one receiving test compound and the other serving as an untreated control. The RDRs were sterilized by autoclave, then filled with sterile medium and inoculated with P. aeruginosa strain PAO1. The reactors were then incubated at room temperature in batch mode (no medium flow) for a period of 24 hours, after which the flow was initiated for a further 24 hour incubation. Test compounds were dissolved in 10 ml ethanol to achieve a concentration of 1.8 mg/ml. After the 48 hours of biofilm development described above, the 10 ml of ethanol containing the test compounds were added to the reactor to achieve a final concentration of approximately 50, 100, or 200 μg/ml. Control reactors received 10 ml of ethanol. The reactors were then incubated for an additional 24 hours in batch (no flow) mode. After this incubation period, the six coupons were removed from each reactor and placed in 12-well polystyrene tissue culture plates with wells containing either 2 ml of a 100 μg/ml tobramycin solution or 2 ml of phosphate-buffered saline (PBS). These plates were incubated at room temperature for two hours. The coupons were then rinsed by three transfers to plates containing 2 ml of fresh PBS. For each two RDR reactors run in parallel, four sets of three coupons were obtained: one set with no test compound treatment and no tobramycin treatment, one set with no test compound treatment and tobramycin treatment, one set treated with a test compound treatment and no tobramycin treatment, and one set treated with a test compound treatment and tobramycin. After rinsing, one coupon of each set of three was stained with a LIVE/DEAD® BacLight™ Bacterial Viability Kit (Molecular Probes, Eugene Oreg.) and imaged using epifluorescent microscopy. The remaining two coupons were placed in 10 ml of PBS and sonicated for five minutes to remove and disperse biofilm cells. The resulting bacterial suspensions were then serially diluted in PBS and plated on tryptic soy agar plates for enumeration of culturable bacteria. The plates were incubated for 24 hours at 37° C. before colony forming units (CFU) were determined.
The results are averages from experiments performed on three separate days for each test compound. The values reported are as loglo CFU.

[2] = system: E. coli clinical strain UT189 against bladder epithelial cells; assay: Binding to and invasion of bladder epithelial cells by E. coli; format: cell-based; conditions: 40 μg/ml, 60 minutes; separate experiments (n=4 to 7)
Experimental: The effect of test compounds on bacterial invasion of E. coli clinical strain UT189 was studied as described in Elsinghorst, et al. 1994, Methods Enzymol, 236:405-420; and Martinez et al., 2000, EMBO J., 19:2803-2812. Epithelial bladder cells were grown in plates. Asiatic acid, corosolic acid, or ursolic acid were added at concentrations of 10 μg/ml, 20 μg/ml, or 40 μg/ml to bacteria and epithelial cells for approximately 5, 15, 30, or 60 minutes with approximately 10^7 CFU of E. coli. Binding was assessed at time zero and invasion was assessed at approximately 5, 15, 30, or 60 minutes from completing the mixture of compound, bacteria, and epithelial cells. As a control ethanol was added to cells to a final concentration of 0.1%. The effect of bacterial viability and bacterial adherence during the infection period was evaluated according to the methods described in Martinez et al., 2000, EMBO J., 19:2803-2812.

S. sobrinus 6715 = assay: Biofilm growth inhibition in 1 mL polycarbonate tubes; format: cell-based; conditions: Streptococcus sobrinus, 40 μg/mL

## C[C@H]1[C@H](C)CC[C@]2(C(=O)O)CC[C@]3(C)C(=CC[C@@H]4[C@@]5(C)C[C@@H](O)[C@H](O)[C@@](C)(CO)[C@@H]5CC[C@]43C)[C@H]12 [Asiatic acid]
[1]; test compound 50 μg/ml 24 h
  CFU, Test Compound: 7.7 loglo CFU
  CFU, Tobramycin and Test Compound: 5.3 loglo CFU
[1]; test compound 100 μg/ml 24 h
  CFU, Test Compound: 7.7 loglo CFU
  CFU, Tobramycin and Test Compound: 5.5 loglo CFU
[1]; test compound 200 μg/ml 24 h
  CFU, Test Compound: 7.5 loglo CFU
  CFU, Tobramycin and Test Compound: 5.2 loglo CFU
[2]
  reduced invasion of E. coli into bladder epithelial cells: 87%
S. sobrinus 6715
  inhibition at 40 µg/mL: > 75%
